According to PubChem BioAssay (NCI):
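Five concentrations, 48 hours, 96-well plates. GI50: concentration for 50% inhibition of growth. TGI: concentration producing complete growth inhibition.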

Key:
Experiment in all cases: NCI anticancer screen, dose series, 48 h
RPMI-8226 leukemia = tested on: RPMI-8226 leukemia
SK-OV-3 ovarian = tested on: SK-OV-3 ovarian
SNB-19 CNS = tested on: SNB-19 CNS
A498 renal = tested on: A498 renal
UACC-62 melanoma = tested on: UACC-62 melanoma
UO-31 renal = tested on: UO-31 renal
BT-549 breast = tested on: BT-549 breast
CAKI-1 renal = tested on: CAKI-1 renal
HCC-2998 colon = tested on: HCC-2998 colon
U251 CNS = tested on: U251 CNS
786-0 renal = tested on: 786-0 renal
HT29 colon = tested on: HT29 colon
K-562 leukemia = tested on: K-562 leukemia
OVCAR-8 ovarian = tested on: OVCAR-8 ovarian
COLO 205 colon = tested on: COLO 205 colon
SK-MEL-28 melanoma = tested on: SK-MEL-28 melanoma
SF-539 CNS = tested on: SF-539 CNS
IGROV1 ovarian = tested on: IGROV1 ovarian
HCT-116 colon = tested on: HCT-116 colon
MALME-3M melanoma = tested on: MALME-3M melanoma
KM12 colon = tested on: KM12 colon
SF-295 CNS = tested on: SF-295 CNS
OVCAR-4 ovarian = tested on: OVCAR-4 ovarian
SW-620 colon = tested on: SW-620 colon
OVCAR-3 ovarian = tested on: OVCAR-3 ovarian
RXF 393 renal = tested on: RXF 393 renal
LOX IMVI melanoma = tested on: LOX IMVI melanoma
DU-145 prostate = tested on: DU-145 prostate
T-47D breast = tested on: T-47D breast
ACHN renal = tested on: ACHN renal
NCI-H23 lung = tested on: NCI-H23 lung
MCF7 breast = tested on: MCF7 breast
NCI-H226 lung = tested on: NCI-H226 lung
M14 melanoma = tested on: M14 melanoma
HL-60(TB) leukemia = tested on: HL-60(TB) leukemia
MOLT-4 leukemia = tested on: MOLT-4 leukemia
TK-10 renal = tested on: TK-10 renal
SNB-75 CNS = tested on: SNB-75 CNS
HCT-15 colon = tested on: HCT-15 colon
UACC-257 melanoma = tested on: UACC-257 melanoma
NCI/ADR-RES ovarian = tested on: NCI/ADR-RES ovarian
SR leukemia = tested on: SR leukemia
PC-3 prostate = tested on: PC-3 prostate
MDA-MB-231 breast = tested on: MDA-MB-231 breast
SF-268 CNS = tested on: SF-268 CNS
MDA-MB-435 = tested on: MDA-MB-435
NCI-H460 lung = tested on: NCI-H460 lung
CCRF-CEM leukemia = tested on: CCRF-CEM leukemia
SK-MEL-5 melanoma = tested on: SK-MEL-5 melanoma
HOP-62 NSCLC = tested on: HOP-62 NSCLC
SN12C renal = tested on: SN12C renal
SK-MEL-2 melanoma = tested on: SK-MEL-2 melanoma
A549 NSCLC = tested on: A549 NSCLC
OVCAR-5 ovarian = tested on: OVCAR-5 ovarian
NCI-H522 lung = tested on: NCI-H522 lung
HS 578T breast = tested on: HS 578T breast
HOP-92 NSCLC = tested on: HOP-92 NSCLC

## CSCc1ncc(-c2ccc(C(F)(F)F)cc2)c(NC2CCCCCC2)n1
RPMI-8226 leukemia
  GI50: > 10 µM
  TGI: > 10 µM
SK-OV-3 ovarian
  GI50: > 10 µM
  TGI: > 10 µM
SNB-19 CNS
  GI50: > 10 µM
  TGI: > 10 µM
A498 renal
  GI50: > 10 µM
  TGI: > 10 µM
UACC-62 melanoma
  GI50: > 10 µM
  TGI: > 10 µM
UO-31 renal
  GI50: > 10 µM
  TGI: > 10 µM
BT-549 breast
  GI50: > 10 µM
  TGI: > 10 µM
CAKI-1 renal
  GI50: > 10 µM
  TGI: > 10 µM
HCC-2998 colon
  GI50: > 10 µM
  TGI: > 10 µM
U251 CNS
  GI50: > 10 µM
  TGI: > 10 µM
786-0 renal
  GI50: > 10 µM
  TGI: > 10 µM
HT29 colon
  GI50: > 10 µM
  TGI: > 10 µM
K-562 leukemia
  GI50: > 10 µM
  TGI: > 10 µM
OVCAR-8 ovarian
  GI50: > 10 µM
  TGI: > 10 µM
COLO 205 colon
  GI50: > 10 µM
  TGI: > 10 µM
SK-MEL-28 melanoma
  GI50: > 10 µM
  TGI: > 10 µM
SF-539 CNS
  GI50: > 10 µM
  TGI: > 10 µM
IGROV1 ovarian
  GI50: > 10 µM
  TGI: > 10 µM
HCT-116 colon
  GI50: > 10 µM
  TGI: > 10 µM
MALME-3M melanoma
  GI50: > 10 µM
  TGI: > 10 µM
KM12 colon
  GI50: > 10 µM
  TGI: > 10 µM
SF-295 CNS
  GI50: > 10 µM
  TGI: > 10 µM
OVCAR-4 ovarian
  GI50: > 10 µM
  TGI: > 10 µM
SW-620 colon
  GI50: > 10 µM
  TGI: > 10 µM
OVCAR-3 ovarian
  GI50: > 10 µM
  TGI: > 10 µM
RXF 393 renal
  GI50: > 10 µM
  TGI: > 10 µM
LOX IMVI melanoma
  GI50: > 10 µM
  TGI: > 10 µM
DU-145 prostate
  GI50: > 10 µM
  TGI: > 10 µM
T-47D breast
  GI50: > 10 µM
  TGI: > 10 µM
ACHN renal
  GI50: > 10 µM
  TGI: > 10 µM
NCI-H23 lung
  GI50: > 10 µM
  TGI: > 10 µM
MCF7 breast
  GI50: > 10 µM
  TGI: > 10 µM
NCI-H226 lung
  GI50: > 10 µM
  TGI: > 10 µM
M14 melanoma
  GI50: > 10 µM
  TGI: > 10 µM
HL-60(TB) leukemia
  GI50: > 10 µM
  TGI: > 10 µM
MOLT-4 leukemia
  GI50: > 10 µM
  TGI: > 10 µM
TK-10 renal
  GI50: > 10 µM
  TGI: > 10 µM
SNB-75 CNS
  GI50: > 10 µM
  TGI: > 10 µM
HCT-15 colon
  GI50: > 10 µM
  TGI: > 10 µM
UACC-257 melanoma
  GI50: > 10 µM
  TGI: > 10 µM
NCI/ADR-RES ovarian
  GI50: > 10 µM
  TGI: > 10 µM
SR leukemia
  GI50: > 10 µM
  TGI: > 10 µM
PC-3 prostate
  GI50: > 10 µM
  TGI: > 10 µM
MDA-MB-231 breast
  GI50: > 10 µM
  TGI: > 10 µM
SF-268 CNS
  GI50: > 10 µM
  TGI: > 10 µM
MDA-MB-435
  GI50: > 10 µM
  TGI: > 10 µM
NCI-H460 lung
  GI50: > 10 µM
  TGI: > 10 µM
CCRF-CEM leukemia
  GI50: > 10 µM
  TGI: > 10 µM
SK-MEL-5 melanoma
  GI50: > 10 µM
  TGI: > 10 µM
HOP-62 NSCLC
  GI50: > 10 µM
  TGI: > 10 µM
SN12C renal
  GI50: > 10 µM
  TGI: > 10 µM
SK-MEL-2 melanoma
  GI50: > 10 µM
  TGI: > 10 µM
A549 NSCLC
  GI50: > 10 µM
  TGI: > 10 µM
OVCAR-5 ovarian
  GI50: > 10 µM
  TGI: > 10 µM

## CCCCS(=O)(=O)c1cc(Nc2ccc(O)c3c2C(=O)c2ccccc2C3=O)ccc1C
NCI-H522 lung
  GI50: > 100 µM
  TGI: > 100 µM
RPMI-8226 leukemia
  GI50: > 100 µM
  TGI: > 100 µM
SK-OV-3 ovarian
  GI50: > 100 µM
  TGI: > 100 µM
SNB-19 CNS
  GI50: 13.4 µM
  TGI: > 100 µM
A498 renal
  GI50: > 100 µM
  TGI: > 100 µM
UACC-62 melanoma
  GI50: 2.77 µM
  TGI: > 100 µM
UO-31 renal
  GI50: > 100 µM
  TGI: > 100 µM
BT-549 breast
  GI50: > 100 µM
  TGI: > 100 µM
CAKI-1 renal
  GI50: > 100 µM
  TGI: > 100 µM
HCC-2998 colon
  GI50: > 100 µM
  TGI: > 100 µM
U251 CNS
  GI50: 35.8 µM
  TGI: > 100 µM
786-0 renal
  GI50: > 100 µM
  TGI: > 100 µM
HT29 colon
  GI50: > 100 µM
  TGI: > 100 µM
OVCAR-8 ovarian
  GI50: > 100 µM
  TGI: > 100 µM
SK-MEL-28 melanoma
  GI50: > 100 µM
  TGI: > 100 µM
SF-539 CNS
  GI50: > 100 µM
  TGI: > 100 µM
IGROV1 ovarian
  GI50: > 100 µM
  TGI: > 100 µM
HCT-116 colon
  GI50: > 100 µM
  TGI: > 100 µM
KM12 colon
  GI50: > 100 µM
  TGI: > 100 µM
SF-295 CNS
  GI50: 5.77 µM
  TGI: > 100 µM
SW-620 colon
  GI50: > 100 µM
  TGI: > 100 µM
RXF 393 renal
  GI50: 14.6 µM
  TGI: > 100 µM
DU-145 prostate
  GI50: 5.01 µM
  TGI: > 100 µM
T-47D breast
  GI50: > 100 µM
  TGI: > 100 µM
ACHN renal
  GI50: > 100 µM
  TGI: > 100 µM
MCF7 breast
  GI50: 1.25 µM
  TGI: > 100 µM
NCI-H226 lung
  GI50: > 100 µM
  TGI: > 100 µM
M14 melanoma
  GI50: 2.87 µM
  TGI: > 100 µM
HL-60(TB) leukemia
  GI50: > 100 µM
  TGI: > 100 µM
MOLT-4 leukemia
  GI50: > 100 µM
  TGI: > 100 µM
SNB-75 CNS
  GI50: 21.9 µM
  TGI: > 100 µM
HCT-15 colon
  GI50: 6.03 µM
  TGI: > 100 µM
HS 578T breast
  GI50: 75.5 µM
  TGI: > 100 µM
NCI/ADR-RES ovarian
  GI50: > 100 µM
  TGI: > 100 µM
PC-3 prostate
  GI50: > 100 µM
  TGI: > 100 µM
MDA-MB-231 breast
  GI50: 1.68 µM
  TGI: > 100 µM
SF-268 CNS
  GI50: 57.7 µM
  TGI: > 100 µM
NCI-H460 lung
  GI50: 0.431 µM
  TGI: > 100 µM
CCRF-CEM leukemia
  GI50: > 100 µM
  TGI: > 100 µM
HOP-62 NSCLC
  GI50: 27.8 µM
  TGI: > 100 µM
HOP-92 NSCLC
  GI50: > 100 µM
  TGI: > 100 µM
SN12C renal
  GI50: > 100 µM
  TGI: > 100 µM
SK-MEL-2 melanoma
  GI50: 26.5 µM
  TGI: > 100 µM
A549 NSCLC
  GI50: 1.88 µM
  TGI: > 100 µM
OVCAR-5 ovarian
  GI50: > 100 µM
  TGI: > 100 µM
